Experimental data reported in publication PMC7851594 (Genome Biology and Evolution, 2020).

Legend:
drT2R3a [1] = target: T1, drT2R3a (Danio rerio, UniProt Q2AB30); type: cell-based
T1 sequence (Q2AB30 1-313): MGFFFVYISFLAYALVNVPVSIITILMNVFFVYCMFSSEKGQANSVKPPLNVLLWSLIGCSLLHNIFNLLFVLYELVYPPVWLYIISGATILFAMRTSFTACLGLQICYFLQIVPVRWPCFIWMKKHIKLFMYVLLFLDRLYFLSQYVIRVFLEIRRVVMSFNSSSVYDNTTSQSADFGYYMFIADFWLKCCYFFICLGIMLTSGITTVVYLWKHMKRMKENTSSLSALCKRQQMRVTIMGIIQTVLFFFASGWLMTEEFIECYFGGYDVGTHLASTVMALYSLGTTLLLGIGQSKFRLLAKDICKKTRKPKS

drT2R3a [2] = target: T1, drT2R3a; type: cell-based; remark: listed apart in the source

Compound	IC50 (drT2R3a [1]) [µM]	EC50 (drT2R3a [2]) [µM]
O=C1NS(=O)(=O)c2ccccc21 [saccharin]	920 ± 280	–
CC[N+](CC)(CC(=O)Nc1c(C)cccc1C)Cc1ccccc1 [DB, Denatonium benzoate]	–	230 ± 20
